Legend:
medaka Esr1 (mEsr1) [1] = molecular target: T1, medaka Esr1 (mEsr1) (Oryzias latipes, UniProt P50241); test: cell-based; set-up: species or system Japanese medaka (Oryzias latipes)
T1 sequence (P50241 1-620): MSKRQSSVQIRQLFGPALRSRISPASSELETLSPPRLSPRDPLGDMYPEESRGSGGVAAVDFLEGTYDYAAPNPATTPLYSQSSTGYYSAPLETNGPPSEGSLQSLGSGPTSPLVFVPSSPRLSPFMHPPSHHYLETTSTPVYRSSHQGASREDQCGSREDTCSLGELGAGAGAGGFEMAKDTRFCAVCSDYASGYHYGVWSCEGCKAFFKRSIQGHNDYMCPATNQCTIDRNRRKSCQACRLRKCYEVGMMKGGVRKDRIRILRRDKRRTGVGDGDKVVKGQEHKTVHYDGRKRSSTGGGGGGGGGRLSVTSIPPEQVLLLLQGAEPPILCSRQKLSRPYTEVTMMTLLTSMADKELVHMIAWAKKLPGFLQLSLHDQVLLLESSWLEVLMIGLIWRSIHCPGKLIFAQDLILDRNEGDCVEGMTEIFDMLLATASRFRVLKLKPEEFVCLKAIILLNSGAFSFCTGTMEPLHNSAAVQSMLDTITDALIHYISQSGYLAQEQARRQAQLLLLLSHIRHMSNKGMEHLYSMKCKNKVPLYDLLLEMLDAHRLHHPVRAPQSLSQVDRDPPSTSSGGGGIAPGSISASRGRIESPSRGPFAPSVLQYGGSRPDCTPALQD

medaka ARβ (mArβ) [2] = molecular target: T2, medaka ARβ (mArβ) (Oryzias latipes, UniProt D1MV73); test: Medaka ARβ reporter gene assay, agonist assay; format: cell-based, Japanese medaka (Oryzias latipes); settings: MAC = 1.0 × 10^−5 M
T2 sequence (D1MV73 1-744): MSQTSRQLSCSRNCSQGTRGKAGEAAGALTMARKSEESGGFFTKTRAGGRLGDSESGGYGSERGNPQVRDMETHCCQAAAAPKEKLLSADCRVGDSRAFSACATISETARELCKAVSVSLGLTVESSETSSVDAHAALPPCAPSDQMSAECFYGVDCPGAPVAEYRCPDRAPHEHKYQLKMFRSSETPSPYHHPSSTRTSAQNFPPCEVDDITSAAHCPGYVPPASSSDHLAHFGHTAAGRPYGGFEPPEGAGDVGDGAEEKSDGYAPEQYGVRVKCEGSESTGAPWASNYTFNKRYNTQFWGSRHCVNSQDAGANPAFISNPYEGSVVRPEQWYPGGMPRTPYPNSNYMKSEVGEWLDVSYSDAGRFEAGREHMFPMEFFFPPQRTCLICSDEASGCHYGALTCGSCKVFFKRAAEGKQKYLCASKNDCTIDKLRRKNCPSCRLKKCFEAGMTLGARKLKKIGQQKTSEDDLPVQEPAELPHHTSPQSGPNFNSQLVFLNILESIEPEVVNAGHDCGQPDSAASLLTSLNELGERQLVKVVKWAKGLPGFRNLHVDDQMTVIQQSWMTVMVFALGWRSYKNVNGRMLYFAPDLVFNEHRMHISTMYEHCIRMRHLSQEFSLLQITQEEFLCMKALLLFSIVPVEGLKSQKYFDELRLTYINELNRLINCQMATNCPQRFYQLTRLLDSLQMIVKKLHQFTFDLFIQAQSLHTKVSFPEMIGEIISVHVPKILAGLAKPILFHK

medaka ARβ (mArβ) [3] = molecular target: T2, medaka ARβ (mArβ); test: Medaka ARβ reporter gene assay, antagonist assay; format: cell-based, Japanese medaka (Oryzias latipes)
medaka Esr1 (mEsr1) [4] = molecular target: T1, medaka Esr1 (mEsr1); test: Medaka Esr1 reporter gene assay, antagonist assay; format: cell-based, Japanese medaka (Oryzias latipes); settings: E2 spiked at 1.0 nM (B); MAC = 1.0 × 10^−5 M
[5] = system: Japanese medaka (Oryzias latipes); test: Fish Short‐Term Reproduction Assay; format: in vivo; settings: for GSI Female / GSI Male / HSI Female / HSI Male / Length Female / Length Male / Weight Female / Weight Male: completion of exposure
[6] = 1,009 ng/L measured, 21 d, sig. ↑ vs control
[7] = measured concentration 112 ng/L
[8] = measured concentration 272 ng/L
[9] = measured concentration 1,009 ng/L

## C[C@]12CC[C@@H]3c4ccc(O)cc4CC[C@H]3[C@@H]1CCC2=O [Chemical E1, Estrone]
Medaka Esr1 (mEsr1) [1]
  EC50: 5.4 nM
Medaka Esr1 (mEsr1) [1]; mode of action in which EC50 or PC10 was obtained in RGA
  In vitro positive: Esr: Esr
Medaka ARβ (mArβ) [2]
  Agonistic activity: NE (MAC = 1.0 × 10^−5 M)
Medaka ARβ (mArβ) [3]; Antagonistic activity IC50, 11‐KT spiked at 50 nM (D)
  IC50: 1500 nM
Medaka ARβ (mArβ) [3]; mode of action in which IC50 or IC30 was obtained in RGA
  In vitro positive: aAr: aAr
Medaka ARβ (mArβ) [3]; transcriptional activity on mArβ by 11KT
  Antagonistic activity on mArβ (in words): inhibitory potency
Medaka Esr1 (mEsr1) [4]
  Antagonistic activity: NE (MAC = 1.0 × 10^−5 M)^(B)
[5]; 29 ng/L measured, 21 d
  Fertility rate: 92 ± 9.8%
  Hepatic VTG, female: 652 ± 391 ng/mg‐liver
  Hepatic VTG, male: 47.9 ± 54.0 ng/mg‐liver
  Mortality: 0.0%
  Mortality, number of dead fish: 0
  Number of fertilized eggs (per female per day): 17 ± 4.4
  Number of total eggs (per female per day): 18 ± 3.2
  SSC female (joint plates with papillary processes): 0 ± 0
  SSC male (joint plates with papillary processes): 97 ± 14
[5]; 112 ng/L measured, 21 d
  Fertility rate: 96 ± 1.3%
  Hepatic VTG, female: 977 ± 274 ng/mg‐liver
  Hepatic VTG, male: 382 ± 351 ng/mg‐liver
  Mortality: 0.0%
  Mortality, number of dead fish: 0
  Number of fertilized eggs (per female per day): 19 ± 2.4
  Number of total eggs (per female per day): 19 ± 2.6
  SSC female (joint plates with papillary processes): 0 ± 0
  SSC male (joint plates with papillary processes): 98 ± 25
[5]; 272 ng/L measured, 21 d
  Fertility rate: 96 ± 2.8%
  Hepatic VTG, female: 1,017 ± 238 ng/mg‐liver
  Mortality: 0.0%
  Mortality, number of dead fish: 0
  Number of fertilized eggs (per female per day): 16 ± 2.5
  Number of total eggs (per female per day): 17 ± 2.5
  SSC female (joint plates with papillary processes): 0 ± 0
  SSC male (joint plates with papillary processes): 85 ± 14
[5]; 272 ng/L measured, 21 d, sig. ↑ vs control
  Hepatic VTG, male: 3,649 ± 665 ng/mg‐liver
[5]; 1,009 ng/L measured, 21 d
  Fertility rate: 86 ± 3.6%
  Mortality: 0.0%
  Mortality, number of dead fish: 0
  SSC female (joint plates with papillary processes): 0 ± 0
  SSC male (joint plates with papillary processes): 85 ± 18
[5]; [6]
  Hepatic VTG, female: 1994 ± 1,480 ng/mg‐liver
  Hepatic VTG, male: 5,429 ± 687 ng/mg‐liver
[5]; 1,009 ng/L measured, 21 d, sig. ↓ vs control
  Number of total eggs (per female per day): 10 ± 2.0
[5]; 21 d
  Fecundity, number of total eggs (in words): statistically significant decrease
  LOEC, elevated hepatic VTG in males: 272 ng/L
[5]; LOEC on reproduction (fecundity and/or fertility)
  LOECREPRO: 1.009 µg/L
[5]; Oryzias latipes, 504 h, read-out: LOECmVTG
  minimal effective concentration: 0.000272 µg/mL
[5]; chemicals with significant decrease of number of total eggs
  Fertility rate (in words): no significant effect
[5]; concentrations without overt toxicity
  LOECREPRO (reduction in fecundity or fertility): 1.009 µg/L
[5]; lowest observed effect concentration on mortality
  LOECTOX: ND (>1.009) μg/L
[5]; measured concentration 29 ng/L
  GSI Female: 10.7 ± 1.4%
  GSI Male: 1.15 ± 0.31%
  HSI Female: 5.4 ± 0.61%
  HSI Male: 2.0 ± 0.28%
  Length Female: 33.8 ± 1.0 mm
  Length Male: 35.8 ± 1.7 mm
  Weight Female: 454 ± 56 mg
  Weight Male: 468 ± 85 mg
[5]; [7]
  GSI Female: 11.2 ± 1.8%
  GSI Male: 1.17 ± 0.27%
  HSI Female: 5.5 ± 0.77%
  HSI Male: 2.1 ± 0.54%
  Length Female: 34.3 ± 1.6 mm
  Length Male: 36.5 ± 1.2 mm
  Weight Female: 460 ± 86 mg
  Weight Male: 481 ± 44 mg
[5]; [8]
  GSI Female: 11.3 ± 1.0%
  GSI Male: 0.84 ± 0.32%
  HSI Female: 6.0 ± 0.76%
  HSI Male: 2.7 ± 0.38%
  Length Female: 34.0 ± 1.0 mm
  Length Male: 36.5 ± 1.3 mm
  Weight Female: 417 ± 41 mg
  Weight Male: 464 ± 62 mg
[5]; [9]
  GSI Female: 11.4 ± 7.1%
  GSI Male: 0.48 ± 0.23%
  HSI Female: 5.1 ± 1.24%
  HSI Male: 3.5 ± 0.50%
  Length Female: 34.2 ± 2.1 mm
  Length Male: 35.9 ± 1.4 mm
  Weight Female: 443 ± 97 mg
  Weight Male: 468 ± 54 mg

Reference: publication PMC9297976 (Journal of Applied Toxicology, 2021)
